Results from US20250213647A1, “CHEMOKINE RECEPTORS AND ALPHA1 ADRENERGIC RECEPTORS/VASOPRESSIN RECEPTORS 1A HETEROMERS AS DRUG TARGETS FOR DISEASE” (UNIVERSITY OF SOUTH FLORIDA, priority 2022, published 2025).

Experiments:
CXCR4 [1] = conditions: previous observations (Gao, 2018); cited from earlier work
[2] = tested on: CR heteromerization partners of α1B/D-ARs (CCR1, CCR2, CXCR4); test: Chemotaxis assay, THP-1 cells, CR heteromerization partners of α1B/D-ARs taken together; assay type: cell-based, human; conditions: FIG. 17D-17F
Experimental: (§1) Cell migration was measured employing the Neuroprobe (Gaithersburg, MD, USA) ChemoTx® Disposable Chemotaxis System. A 96-well Boyden-chamber (30 μL/well, 8 μm pores, 1×10^5 pores/cm^2 pore density) was selected for all chemotaxis experiments. Bottom wells of the Boyden-chamber were loaded with 30 μL of test substances at various concentrations. Top wells of the membrane were loaded with 25 μL of THP-1 cells, THP-1_ADRA1B^KO, wild type THP-1 cells after clonal expansion (=control for THP-1_ADRA1B^KO) or freshly isolated monocytes (200 cells/μL). THP-1 cells were suspended in depleted RPMI1640 (0.5% HyClone™ fetal bovine serum, Sigma); Freshly isolated monocytes were suspended in RPMI1640 (0.5% human platelet poor plasma, Sigma). After 3 hours, transmigrated cells were counted utilizing the Cytation 1 plate reader (BioTek) by direct imaging in high contrast bright field (4×) and post-imaging particle analyses with Gen5 (v3.05) Imaging & Microscopy Software (BioTek). The chemotactic index (CI) was calculated as the ratio of cells that transmigrated in the presence versus the absence of the test solutions.

CCR1 = test: Chemotaxis assay, THP-1 cells toward CCL23 (CCR1-mediated); assay type: cell-based, human; conditions: CCL23 10 nM, mean±SE, read-out: IC50 for inhibition of CCR1-mediated chemotaxis
Experimental: as §1

CCR2 = CCR2 (Homo sapiens, UniProt P41597); test: Chemotaxis assay, THP-1 cells toward CCL2 (CCR2-mediated); assay type: cell-based; parameters: host or cells: THP-1; conditions: CCL2 10 nM, mean±SE, read-out: IC50 for inhibition of CCR2-mediated chemotaxis
Sequence of CCR2 (P41597 whole entry): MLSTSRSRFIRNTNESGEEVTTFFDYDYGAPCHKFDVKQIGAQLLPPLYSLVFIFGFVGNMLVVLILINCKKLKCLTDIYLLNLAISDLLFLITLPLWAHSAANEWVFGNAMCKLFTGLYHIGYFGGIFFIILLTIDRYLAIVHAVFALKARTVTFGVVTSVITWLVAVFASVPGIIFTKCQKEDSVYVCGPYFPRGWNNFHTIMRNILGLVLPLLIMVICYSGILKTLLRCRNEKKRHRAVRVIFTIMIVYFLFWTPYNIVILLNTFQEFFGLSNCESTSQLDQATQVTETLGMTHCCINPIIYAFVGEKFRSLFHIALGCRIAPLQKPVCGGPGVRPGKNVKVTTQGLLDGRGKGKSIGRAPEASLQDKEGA
Experimental: as §1

CXCR4 [3] = test: Chemotaxis assay, THP-1 cells toward CXCL12 (CXCR4-mediated); assay type: cell-based, human; conditions: CXCL12 100 nM, mean±SE, read-out: IC50 for inhibition of CXCR4-mediated chemotaxis
Experimental: as §1

[4] = tested on: AVPR1A heteromerization partners CCR2, CCR8 and CXCR4; test: Chemotaxis assay, THP-1 cells, AVPR1A heteromerization partners CCR2, CCR8 and CXCR4; assay type: cell-based; conditions: Homo sapiens, FIG. 13A, 13C, read-out: IC50, inhibition of chemotaxis mediated via CCR2, CCR8 and CXCR4

For `COc1cc2nc(N3CCN(C(=O)c4ccco4)CC3)nc(N)c2cc1OC` [prazosin], the “CXCR4-mediated chemotaxis of primary human vascular smooth muscle cells” value (CXCR4 [1]) is listed as “inhibit”.

For `COc1cc2nc(N3CCN(C(=O)c4ccco4)[C@H]4CCCC[C@H]43)nc(N)c2cc1OC` (racemic) [cyclazosin], the “CXCR4-mediated chemotaxis of primary human vascular smooth muscle cells” value (CXCR4 [1]) is given as “inhibit”.

With `COc1ccccc1N1CCN(CCCNc2c(C)c(=O)n(C)c(=O)n2C)CC1` [5-Methylurapidil] the “CR-mediated chemotaxis (CCR1, CCR2 and CXCR4)” value [2] was “did not affect”.

`COc1ccccc1N1CCN(CCN2C(=O)CC3(CCCC3)CC2=O)CC1` [BMY7378] gave an IC50 (CCR1) of 10.5 ± 0.91 nM, an IC50 (CCR2) of 0.93 ± 0.61 nM and an IC50 (CXCR4 [3]) of 2.87 ± 0.6 nM.

`Cc1nc2c([nH]1)-c1ccccc1N(C(=O)c1ccc(NC(=O)c3ccccc3-c3ccccc3)cc1)CC2` [Conivaptan] gave an IC50 [4] of 0.037 to 0.218 nM.
